Assay results reported in patent US20180311247A1, “COMBINATION THERAPIES FOR TREATING CANCERS” (GILEAD SCIENCES, INC., priority 2015, published 2018).
Where two headings read alike, the source gives them in different places.

Experiments:
[1] = system: human activated B cell (ABC) subtype DLBCL cell line, TMD8; assay: TMD8 cell viability (CellTiter Glo) growth inhibition assay; assay type: cell-based; conditions: TMD8 cells; for cell growth inhibition over the dose range: four days, Compound D 0-90 nM, Compound A1 0-22 nM; for IC50: Homo sapiens, TMD8, 96 h, 96 hours, read-out: average IC50 (concentration that causes half maximal inhibition of cell growth)
Experimental: Material and Methods: The effect of the combination of a BET inhibitor, (2-cyclopropyl-6-(3,5-dimethylisoxazol-4-yl)-1H-benzo[d]imidazol-4-yl)di(pyridin-2-yl)methanol (Compound D), and BTK inhibitor (Compound A1) on growth inhibition of the human activated B cell (ABC) subtype DLBCL cell line, TMD8, was evaluated in vitro. TMD8 cells were dosed with a matrix of Compound D (0-90 nM) and compound A1 (0-22 nM) and treated for four days, after which cell viability was measured by a CellTiter Glo assay. A representative heatmap of this dose matrix for cell growth inhibition is shown in FIG. 2 (0% to 100% growth inhibition). […] Synergy was defined as the excess over the predicted additive interaction between the compounds using Bliss analysis.
Cells were plated at a density of 4,000 cells per well in 384-well (Grenier 781086) tissue culture black well plates already spotted with compounds by a Labcyte Echo liquid handler. […] The predicted response under Bliss additivity for any combination of drugs at a given concentration pair was determined by Ra+Rb−Ra*Rb, where Ra and Rb are the responses of Compounds D and A1 (i.e., cell growth inhibition). The total Bliss score was determined by summing the differences between the observed values and the predicted additive value at each pair of concentrations assayed. Only values where the difference is greater than the 95% confidence interval of the measurements are included in the sum.

[2] = system: type II collagen arthritis in female Lewis rats; assay: rat collagen-induced arthritis model (established type II collagen arthritis); assay type: in vivo; conditions: for summed ankle histopathology (mean ± standard error), maximum value of 25: day 34
Experimental: This study evaluated the potential effects of BTK inhibitor in combination with JAK inhibitor in treating arthritis. Lewis rats were injected intradermally/subcutaneously (ID/SC) with porcine type II collagen to induce arthritis. Arthritic rats were treated with vehicle (20% Cremophor EL/10% EtOH/70% saline), Compound A1 (a BTK inhibitor), Compound B4 (a JAK inhibitor), Compound A1 and Compound B4, or Dex (dexamethasone). Compound A1 was administered orally either twice daily at 3, 10, or 20 mg/kg or once daily at 20 mg/kg; Compound B4 was administered orally daily at 2.5 mg/kg; dex was administered daily at 0.075 mg/kg, initiated on day 17. The study was terminated at day 34. Efficacy evaluation was based on body weights, daily ankle caliper measurements, ankle diameter expressed as area under the curve (AUC), terminal hind paw weights, and histopathologic evaluation of right ankles.
This model may reflect certain clinical and histopathologic parameters, such as inflammation, cartilage destruction, and bone resorption that occur in established type II collagen arthritis in female Lewis rats.
Ankle diameters were measured and compared for potential treatment effects. FIG. 1 depicts the measurements taken on Day 9, 13-34 for ankle diameter (in.) (mean±standard error) for the following groups: control (normal and disease), Compound A1 (20 mg/kg, daily), Compound A1 (3 mg/kg, twice daily), Compound B4 (2.5 mg/kg, twice daily), Compound A1 (20 mg/kg, daily) with Compound B4 (2.5 mg/kg, twice daily), Compound A1 (3 mg/kg, twice daily) with Compound B4 (2.5 mg/kg, twice daily) and Dex (0.075 mg/kg daily). In addition, the AUC total sum (day 17-34) (mean f standard error) was measured.
The following score systems were used to evaluate ankle inflammation, ankle pannus, ankle cartilage damage, ankle bone resorption, and periosteal new bone formation, which may represent treatment effects to ankle histology. The sum of the summed ankle histology scores for day 34, are provided herein.
Ankle inflammation scores as used herein have the following meaning: 0=normal; 0.5=minimal focus inflammation; 1=minimal infiltration of inflammatory cells in synovium/periarticular tissue; 2=mild infiltration; 3-moderate infiltration with moderate edema; 4=marked infiltration with marked edema; 5=severe infiltration with severe edema. Ankle pannus scores as used herein have the following meaning: 0=normal; 0.5=minimal infiltration of pannus in cartilage and subchondral bone, affects only marginal zones and affects only a few joints; 1=minimal infiltration of pannus in cartilage and subchondral bone, primarily affects marginal zones; 2=mild infiltration (<25% of tibia or tarsals at marginal zones); 3=moderate infiltration (26%-50% of tibia or small tarsals affected at marginal zones); 4=marked infiltration (51%-75% of tibia or tarsals affected at marginal zones); 5=severe infiltration (>75% of tibia or tarsals affected at marginal zones, severe distortion of overall architecture).

[3] = Compound A1 3 mg/kg, twice daily, orally
[4] = Compound A1 10 mg/kg, twice daily, orally
[5] = Compound A1 20 mg/kg, daily, orally
[6] = Compound A1 20 mg/kg, twice daily, orally
[7] = Compound B4 2.5 mg/kg, twice daily, orally

## CC#CC(=O)N1CC[C@@H](n2c(=O)n(-c3ccc(Oc4ccccc4)cc3)c3c(N)ncnc32)C1 [Compound A1, (R)-6-amino-9-(1-(but-2-ynoyl)pyrrolidin-3-yl)-7-(4-phenoxyphenyl)-7H-purin-8(9H)-one]
[1]
  cell growth inhibition over the dose range: reduced cell growth
[2]; [3]
  ED-1 immunopositive osteoclast count (mean ± standard error): 7±1.3
  ankle diameter AUC total sum (day 17-34) (mean ± standard error): 5.9±0.079
  percent inhibition of the AUC total sum (day 17-34): 13%
  percent inhibition of the ED-1 immunopositive osteoclast count: 65%
  percent inhibition of the summed ankle histopathology: 10%
  summed ankle histopathology (mean ± standard error), maximum value of 25: 23±0.6
[2]; [4]
  ED-1 immunopositive osteoclast count (mean ± standard error): 8±1.9
  ankle diameter AUC total sum (day 17-34) (mean ± standard error): 5.9±0.102
  percent inhibition of the AUC total sum (day 17-34): 9%
  percent inhibition of the ED-1 immunopositive osteoclast count: 62%
  percent inhibition of the summed ankle histopathology: 16%
  summed ankle histopathology (mean ± standard error), maximum value of 25: 21±1.4
[2]; [5]
  ED-1 immunopositive osteoclast count (mean ± standard error): 9±1.5
  ankle diameter AUC total sum (day 17-34) (mean ± standard error): 5.9±0.096
  percent inhibition of the AUC total sum (day 17-34): 13%
  percent inhibition of the ED-1 immunopositive osteoclast count: 56%
  percent inhibition of the summed ankle histopathology: 15%
  summed ankle histopathology (mean ± standard error), maximum value of 25: 21±0.7
[2]; [6]
  ED-1 immunopositive osteoclast count (mean ± standard error): 4±0.7
  ankle diameter AUC total sum (day 17-34) (mean ± standard error): 5.8±0.124
  percent inhibition of the AUC total sum (day 17-34): 15%
  percent inhibition of the ED-1 immunopositive osteoclast count: 83%
  percent inhibition of the summed ankle histopathology: 18%
  summed ankle histopathology (mean ± standard error), maximum value of 25: 21±0.6

## C[C@@H]1CCN(C(=O)CC#N)C[C@@H]1N(C)c1ncnc2[nH]ccc12 [Compound B4, 3-((3R,4R)-4-methyl-3-(methyl(7H-pyrrolo[2,3-d]pyrimidin-4-yl)amino)piperidin-1-yl)-3-oxopropanenitrile, reference compound]
[2]; [7]
  ED-1 immunopositive osteoclast count (mean ± standard error): 16±1.7
  ankle diameter AUC total sum (day 17-34) (mean ± standard error): 5.6±0.083
  percent inhibition of the AUC total sum (day 17-34): 28%
  percent inhibition of the ED-1 immunopositive osteoclast count: 14%
  percent inhibition of the summed ankle histopathology: 23%
  summed ankle histopathology (mean ± standard error), maximum value of 25: 19±1.4

## Cc1noc(C)c1-c1cc(C(O)(c2ccccn2)c2ccccn2)c2nc(C3CC3)[nH]c2c1 [Compound D, (2-cyclopropyl-6-(3,5-dimethylisoxazol-4-yl)-1H-benzo[d]imidazol-4-yl)di(pyridin-2-yl)methanol]
[1]; Compound D alone
  IC50: 25 nM
[1]; in the presence of 5.5 nM of Compound A1
  IC50: 11 nM
[1]; in the presence of 11 nM of Compound A1
  IC50: 8 nM
[1]
  cell growth inhibition over the dose range: reduced cell growth

## C[C@@H]1C[C@H]2[C@@H]3CCC4=CC(=O)C=C[C@]4(C)[C@@]3(F)[C@@H](O)C[C@]2(C)[C@@]1(O)C(=O)CO [Dex, dexamethasone, reference compound]
[2]; Dex 0.075 mg/kg
  ED-1 immunopositive osteoclast count (mean ± standard error): 4±1.4
  percent inhibition of the AUC total sum (day 17-34): 56%
  percent inhibition of the ED-1 immunopositive osteoclast count: 85%
  percent inhibition of the summed ankle histopathology: 51%
[2]; Dex 0.075 mg/kg daily
  ankle diameter AUC total sum (day 17-34) (mean ± standard error): 5.2±0.069
  summed ankle histopathology (mean ± standard error), maximum value of 25: 12±1.0
